Test results reported in patent US6800633B2, “Pyrrolo[2,3d]pyrimidine compositions and their use” (OSI Pharmaceuticals, Inc., priority 1998, dated 2004).
pKi: −log10 of the molar value. Where two headings read alike, the source gives them in different places. Each block holds one molecule with its values, some of them ahead of it.

How the values were obtained:
[1] = Water solubility (footnote to Table 13); assay type: physicochemical
[2] = biological target: T1, human A1 receptor subtype (Homo sapiens, UniProt P30542)
T1 sequence (P30542 1-326): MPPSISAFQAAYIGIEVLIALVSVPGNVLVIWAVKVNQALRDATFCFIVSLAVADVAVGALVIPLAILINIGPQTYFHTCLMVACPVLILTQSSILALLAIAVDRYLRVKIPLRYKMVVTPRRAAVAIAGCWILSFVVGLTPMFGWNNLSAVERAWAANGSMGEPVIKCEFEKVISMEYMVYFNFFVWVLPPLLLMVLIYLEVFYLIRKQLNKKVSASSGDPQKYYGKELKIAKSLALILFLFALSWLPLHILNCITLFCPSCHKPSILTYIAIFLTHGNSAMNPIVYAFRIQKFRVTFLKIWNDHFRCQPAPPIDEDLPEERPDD

[3] = biological target: human A2a receptor subtype (Homo sapiens, UniProt P29274); assay: Adenosine 2a receptor subtype competition radioligand binding, [3H]CGS-21680, HEK293 membranes
human A2a receptor subtype, sequence (P29274 whole entry): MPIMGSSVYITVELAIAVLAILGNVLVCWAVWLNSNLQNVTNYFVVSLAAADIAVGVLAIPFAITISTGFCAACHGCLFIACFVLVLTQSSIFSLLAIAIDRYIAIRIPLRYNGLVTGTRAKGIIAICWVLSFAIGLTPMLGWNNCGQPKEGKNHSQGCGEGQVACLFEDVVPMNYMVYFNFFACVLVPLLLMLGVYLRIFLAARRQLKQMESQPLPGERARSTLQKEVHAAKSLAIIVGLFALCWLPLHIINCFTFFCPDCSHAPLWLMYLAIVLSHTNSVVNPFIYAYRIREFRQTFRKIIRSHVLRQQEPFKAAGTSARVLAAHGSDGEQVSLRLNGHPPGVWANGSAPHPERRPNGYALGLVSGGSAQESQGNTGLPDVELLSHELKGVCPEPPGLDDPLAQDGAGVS

[4] = biological target: T2, human A2b receptor subtype (Homo sapiens, UniProt P29275); assay: Adenosine 2b receptor subtype competition radioligand binding, [3H]DPCPX, HEK293 membranes; details: for pKi: Table 13, read-out: Binding Ki (nm) A2b
T2 construct: expressed in transfected cells; host or cells: HEK293
T2 sequence (P29275 1-332): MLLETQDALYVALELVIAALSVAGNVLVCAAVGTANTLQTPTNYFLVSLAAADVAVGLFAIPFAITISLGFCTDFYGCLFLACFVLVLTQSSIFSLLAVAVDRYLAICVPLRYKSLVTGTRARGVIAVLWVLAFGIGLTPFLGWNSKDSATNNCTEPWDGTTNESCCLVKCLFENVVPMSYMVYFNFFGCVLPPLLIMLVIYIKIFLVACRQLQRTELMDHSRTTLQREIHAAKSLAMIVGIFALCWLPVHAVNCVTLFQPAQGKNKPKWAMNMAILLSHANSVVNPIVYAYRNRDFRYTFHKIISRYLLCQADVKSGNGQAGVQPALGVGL

[5] = biological target: T1, human A1 receptor subtype; assay: biochemical
[6] = biological target: T3, human A3 receptor subtype (Homo sapiens, UniProt P0DMS8); assay: Adenosine 3 receptor competition radioligand binding, [125I]AB-MECA, HEK293 membranes
T3 sequence (P0DMS8 1-318): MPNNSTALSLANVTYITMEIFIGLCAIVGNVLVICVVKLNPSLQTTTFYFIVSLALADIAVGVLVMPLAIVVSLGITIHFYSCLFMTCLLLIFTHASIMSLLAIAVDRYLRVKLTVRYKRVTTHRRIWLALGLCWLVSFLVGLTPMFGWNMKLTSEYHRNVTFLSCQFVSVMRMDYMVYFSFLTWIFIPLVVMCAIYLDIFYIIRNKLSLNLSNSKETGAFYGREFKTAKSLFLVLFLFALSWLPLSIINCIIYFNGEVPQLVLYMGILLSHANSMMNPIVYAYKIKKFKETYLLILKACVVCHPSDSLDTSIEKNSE

[7] = biological target: T4, human A1 adenosine receptor (Homo sapiens, UniProt P30542); details: A1 adenosine receptor agonist; cited from earlier work
T4 sequence (P30542 1-326): T1 sequence (P30542 1-326)

[8] = Table 13, given as %, footnote 8: % activity @ 10 μM

SMILES: Cc1[nH]c2nc(-c3ccccc3)nc(NCCNC(=O)C3(N)CC3)c2c1C [CDS-123264]
- water solubility [1]: ^3water soluble;
- A1 binding, % activity [2, 8]: 30%

- pKi ([2]; read-out: A1 Binding Ki, membranes from yeast cells transformed with human A1 receptor, [3H]DPCPX 1.0 nM): < 5.00
SMILES: Cc1[nH]c2nc(-c3ccccc3)nc(NC3CCC(NS(C)(=O)=O)CC3)c2c1C (stereo not shown) [CDS-056176]

SMILES: CNC(=O)NCCCNc1nc(-c2ccccc2)nc2[nH]c(C)c(C)c12 [CDS-121180]
- A2a binding, % activity [3, 8]: 76%

- Ki ([4]; Table 14, read-out: Binding Data Ki (nM) A2B): 47 nM
SMILES: CC(=O)NCCNc1nc(-c2ccccc2)nc2[nH]c(Cn3ccccc3=O)cc12 [CDS-143988, 4-(2-acetylaminoethyl)amino-6-(N-pyridin-2-one)methyl-2-phenyl-7H-pyrrolo[2,3d]pyrimidine]

- pKi [5]: 7.38
- pKi [6]: 7.84
SMILES: CC(=O)NCCNc1nc(-c2ccccc2)nc2[nH]c(COc3ccccc3)cc12 [CDS-129851, 4-(2-acetylaminoethyl)amino-6-phenoxymethyl-2-phenyl-7H-pyrrolo[2,3d]pyrimidine]

- pKi [4]: 6.86
- pKi [6]: 7.67
SMILES: Cc1[nH]c2nc(-c3ccccc3)nc(NC3CCC(O)CC3)c2c1C (stereo not shown) [CDS-046142]

SMILES: CC(Cc1ccccc1)Nc1ncnc2c1ncn2[C@@H]1O[C@H](CO)[C@@H](O)[C@H]1O (single isomer, unassigned; (-)) [R-PIA, (−)-N6-(2-phenylisopropyl)-adenosine]
- reported affinity [7]: approximately 50 nM

- A3 binding, % activity @ 10 μM ([6]; Table 13, 10 μM): 54%^8
SMILES: O[C@H]1CC[C@H](Nc2nc(-c3ccncc3)nc3[nH]ccc23)CC1 [CDS-131921, 4-(trans-4-hydroxycyclohexyl)amino-2-(4-pyridyl)-7H-pyrrolo[2,3d]pyrimidine]

- A2b binding, % activity [4, 8]: 30%
- pKi [6]: 8.00
- pKi [3]: 6.14
SMILES: Cc1[nH]c2nc(-c3cccs3)nc(NC3CCC(O)CC3)c2c1C (stereo not drawn) [CDS-090890, 4-(4-trans-hydroxycyclohexyl)amino-5,6-dimethyl-2-(2-thienyl)-7H-pyrrolo[2,3d]pyrimidin-4-amine]

SMILES: Cc1[nH]c2nc(-c3ccccc3)nc(NCCCNC(=O)CCN)c2c1C [CDS-121181]
- pKi [4]: 5.47
- pKi [5]: 4.12
